Results reported in ChEMBL document CHEMBL3885881, “DrugMatrix”.

Species on record: Rattus norvegicus
Assay: DrugMatrix - Regimen: Daily Repeat
Assay type: toxicity, organism-based, Sprague-Dawley
Set-up: regimen Daily Repeat, gender Male, age 6-8 weeks
Settings: in vivo, sc, route subcutaneous, […]; for ABSOLUTE BASOPHIL / ABSOLUTE EOSINOPHIL / ABSOLUTE LYMPHOCYTE / ABSOLUTE MONOCYTE / ABSOLUTE SEGMENTED NEUTROPHIL / BASOPHIL / EOSINOPHIL / ERYTHROCYTE COUNT / HEMATOCRIT / HEMOGLOBIN / LEUKOCYTE COUNT / LYMPHOCYTE / MEAN CORPUSCULAR HEMOGLOBIN / MEAN CORPUSCULAR HEMOGLOBIN CONCENTRATION / MEAN CORPUSCULAR VOLUME / MONOCYTE / NEUTROPHIL / NUCLEATED RED BLOOD CELLS / PLATELET COUNT: tissue Blood; for ALANINE AMINOTRANSFERASE / ALBUMIN / ALKALINE PHOSPHATASE / ASPARTATE AMINOTRANSFERASE / BLOOD UREA NITROGEN / CARBON DIOXIDE / CHLORIDE / CHOLESTEROL / CREATINE PHOSPHOKINASE / CREATININE / GLUCOSE / LACTATE DEHYDROGENASE / LIPASE / PHOSPHORUS / POTASSIUM / SODIUM / TOTAL BILIRUBIN / TOTAL PROTEIN / URIC ACID: tissue Plasma
[1] = 0 mg/kg, 72 h, dose level Control, time 3 day
[2] = 0 mg/kg, 120 h, dose level Control, time 5 day
[3] = 14 mg/kg, 72 h, dose level Low, time 3 day

Q: Which results are given for `CCN(CC)CCOCCC1=CCC2CC1C2(C)C` (centres undefined) [MYRTECAINE]?
A: ABSOLUTE BASOPHIL [1]: 0 CELLS/uL; ABSOLUTE EOSINOPHIL [1]: 0 CELLS/uL; ABSOLUTE LYMPHOCYTE [1]: 10887 CELLS/uL; ABSOLUTE MONOCYTE [1]: 56 CELLS/uL; ABSOLUTE SEGMENTED NEUTROPHIL [1]: 1057 CELLS/uL; BASOPHIL [1]: 0%; EOSINOPHIL [1]: 0%; ERYTHROCYTE COUNT [1]: 5.31 x10E6/uL; HEMATOCRIT [1]: 33.78%; HEMOGLOBIN [1]: 13.4 G/DL; LEUKOCYTE COUNT [1]: 12 x10E3/uL; LYMPHOCYTE [1]: 91.17%; MEAN CORPUSCULAR HEMOGLOBIN [1]: 25.25 pg; MEAN CORPUSCULAR HEMOGLOBIN CONCENTRATION [1]: 39.65 G/DL; MEAN CORPUSCULAR VOLUME [1]: 63.65 fL; MONOCYTE [1]: 0.5%; NEUTROPHIL [1]: 8.33%; NUCLEATED RED BLOOD CELLS [1]: 0 /100WBC; PLATELET COUNT [1]: 1142 x10E3/uL; ALANINE AMINOTRANSFERASE [1]: 57.17 u/L; ALBUMIN [1]: 4.28 G/DL; ALKALINE PHOSPHATASE [1]: 425.83 u/L; ASPARTATE AMINOTRANSFERASE [1]: 93.83 u/L; BLOOD UREA NITROGEN [1]: 14.17 mg/dL; CARBON DIOXIDE [1]: 33.5 mmol/L; CHLORIDE [1]: 100 MEQ/L; CHOLESTEROL [1]: 70.33 mg/dL; CREATINE PHOSPHOKINASE [1]: 438.67 u/L; CREATININE [1]: 0.19 mg/dL; GLUCOSE [1]: 138.5 mg/dL; LACTATE DEHYDROGENASE [1]: 190.17 u/L; LIPASE [1]: 9.83 u/L; PHOSPHORUS [1]: 11.05 mg/dL; POTASSIUM [1]: 6.59 MEQ/L; SODIUM [1]: 143.58 MEQ/L; TOTAL BILIRUBIN [1]: 0.22 mg/dL; TOTAL PROTEIN [1]: 6.15 G/DL; URIC ACID [1]: 1.3 mg/dL; ABSOLUTE BASOPHIL [2]: 0 CELLS/uL; ABSOLUTE EOSINOPHIL [2]: 91.17 CELLS/uL; ABSOLUTE LYMPHOCYTE [2]: 11847.67 CELLS/uL; ABSOLUTE MONOCYTE [2]: 172.83 CELLS/uL; ABSOLUTE SEGMENTED NEUTROPHIL [2]: 1105 CELLS/uL; BASOPHIL [2]: 0%; EOSINOPHIL [2]: 0.67%; ERYTHROCYTE COUNT [2]: 5.35 x10E6/uL; HEMATOCRIT [2]: 33.65%; HEMOGLOBIN [2]: 13.42 G/DL; LEUKOCYTE COUNT [2]: 13.22 x10E3/uL; LYMPHOCYTE [2]: 89.83%; MEAN CORPUSCULAR HEMOGLOBIN [2]: 25.12 pg; MEAN CORPUSCULAR HEMOGLOBIN CONCENTRATION [2]: 39.9 G/DL; MEAN CORPUSCULAR VOLUME [2]: 63 fL; MONOCYTE [2]: 1.33%; NEUTROPHIL [2]: 8.17%; NUCLEATED RED BLOOD CELLS [2]: 0 /100WBC; PLATELET COUNT [2]: 1347.83 x10E3/uL; ALANINE AMINOTRANSFERASE [2]: 50 u/L; ALBUMIN [2]: 4.1 G/DL; ALKALINE PHOSPHATASE [2]: 329.17 u/L; ASPARTATE AMINOTRANSFERASE [2]: 77.17 u/L; BLOOD UREA NITROGEN [2]: 16.83 mg/dL; CARBON DIOXIDE [2]: 34.83 mmol/L; CHLORIDE [2]: 99.83 MEQ/L; CHOLESTEROL [2]: 75.67 mg/dL; CREATINE PHOSPHOKINASE [2]: 295.83 u/L; CREATININE [2]: 0.18 mg/dL; GLUCOSE [2]: 156.33 mg/dL; LACTATE DEHYDROGENASE [2]: 166.83 u/L; LIPASE [2]: 9.83 u/L; PHOSPHORUS [2]: 12.18 mg/dL; POTASSIUM [2]: 6.69 MEQ/L; SODIUM [2]: 143.97 MEQ/L; TOTAL BILIRUBIN [2]: 0.22 mg/dL; TOTAL PROTEIN [2]: 6.05 G/DL; URIC ACID [2]: 1.6 mg/dL; ABSOLUTE BASOPHIL [3]: 0 CELLS/uL; ABSOLUTE EOSINOPHIL [3]: 0 CELLS/uL; ABSOLUTE LYMPHOCYTE [3]: 10822.33 CELLS/uL; ABSOLUTE MONOCYTE [3]: 0 CELLS/uL; ABSOLUTE SEGMENTED NEUTROPHIL [3]: 1344.33 CELLS/uL; BASOPHIL [3]: 0%; EOSINOPHIL [3]: 0%; ERYTHROCYTE COUNT [3]: 5.32 x10E6/uL; HEMATOCRIT [3]: 33.73%; HEMOGLOBIN [3]: 13.37 G/DL; LEUKOCYTE COUNT [3]: 12.17 x10E3/uL; LYMPHOCYTE [3]: 89%; MEAN CORPUSCULAR HEMOGLOBIN [3]: 25.13 pg; MEAN CORPUSCULAR HEMOGLOBIN CONCENTRATION [3]: 39.6 G/DL; MEAN CORPUSCULAR VOLUME [3]: 63.4 fL; MONOCYTE [3]: 0%; NEUTROPHIL [3]: 11%; NUCLEATED RED BLOOD CELLS [3]: 0 /100WBC; PLATELET COUNT [3]: 1197.33 x10E3/uL; ALANINE AMINOTRANSFERASE [3]: 47.67 u/L; ALBUMIN [3]: 4.13 G/DL; ALKALINE PHOSPHATASE [3]: 420 u/L; ASPARTATE AMINOTRANSFERASE [3]: 80.67 u/L; BLOOD UREA NITROGEN [3]: 13.67 mg/dL; CARBON DIOXIDE [3]: 25.67 mmol/L; CHLORIDE [3]: 103.67 MEQ/L; CHOLESTEROL [3]: 75.67 mg/dL; CREATINE PHOSPHOKINASE [3]: 200.33 u/L; CREATININE [3]: 0.16 mg/dL; GLUCOSE [3]: 152.33 mg/dL; LACTATE DEHYDROGENASE [3]: 214.67 u/L; LIPASE [3]: 9 u/L; PHOSPHORUS [3]: 14.03 mg/dL; POTASSIUM [3]: 6.82 MEQ/L; SODIUM [3]: 146.53 MEQ/L; TOTAL BILIRUBIN [3]: 0.17 mg/dL; TOTAL PROTEIN [3]: 5.97 G/DL; URIC ACID [3]: 1.5 mg/dL
